Test system: Dopaminneurone der SNC
Assay: Prevention of MPP^+-induced degeneration of dopamine neurons after local co-injection into the substantia nigra pars compacta; count of intact neurons in cresyl violet stained brain sections
Assay type: in vivo, Ratten
Details: for Anzahl intakter Neurone (Mittelwert ± S.E.M.): right SNC
Excerpt: Zum Nachweis der protectiven Wirkung der erfindungsgemäßen Verbindungen wurde der toxische Metabolit MPP^+ lokal in die Substantia nigra von Ratten injiziert und somit eine rasch fortschreitende Degeneration der Dopaminneuronen bewirkt.

NC(CCCCCP(=O)(O)O)C(=O)O (stereo not drawn) [AP-7, 2-Amino-7-phosphonoheptansäure]
Anzahl intakter Neurone (Mittelwert ± S.E.M.) (AP-7 0.025 µmol co-injected with MPP^+ (0.025 µmol pro Seite), 4 h after injection, n=3): 26 ± 2
Anzahl intakter Neurone (Mittelwert ± S.E.M.) (AP-7 0.1 µmol co-injected with MPP^+ (0.025 µmol pro Seite), 4 h after injection, n=4): 91 ± 24 x
Anzahl intakter Neurone (Mittelwert ± S.E.M.) (AP-7 0.25 µmol co-injected with MPP^+ (0.025 µmol pro Seite), 4 h after injection, n=9): 128 ± 10 xxx
Anzahl intakter Neurone (Mittelwert ± S.E.M.) (AP-7 0.25 µmol co-injected with MPP^+ (0.025 µmol pro Seite), 8 h after injection, n=4): 79 ± 9 xx
Anzahl intakter Neurone (Mittelwert ± S.E.M.) (AP-7 0.25 µmol co-injected with MPP^+ (0.025 µmol pro Seite), 24 h after injection, n=4): 66 ± 16 x
neurodegenerativer Effekt von MPP^+ auf die Dopaminneuronen (simultaneous local administration with MPP^+ into the substantia nigra of rats, result in words): nahezu vollständig auf

Source: patent publication EP0434173A2, “Use of NMDA receptor antagonists for treatment of chronic neurodegenerative diseases” (SCHERING AKTIENGESELLSCHAFT, priority 1989, dated 1991)
